Test results from ChEMBL document CHEMBL5550204, “Discovery of ZJCK-6-46: A Potent, Selective, and Orally Available Dual-Specificity Tyrosine Phosphorylation-Regulated Kinase 1A Inhibitor for the Treatment of Alzheimer's Disease” (J Med Chem, 2024).
Active and inactive are the calls of the source. The rule behind the calls is not given here.

Experiments:
[1] = Plasma protein binding in human assessed as bound fraction at 1 uM incubated for 5 hrs by LC-MS/MS analysis; assay type: ADME, cell-free; conditions: read-out: PPB (converted)
[2] = Permeability of compound at pH 7.4 at 10 uM incubated for 16 hrs by PAMPA-BBB assay based LC-MS/MS analysis
[3] = Apparent permeability across basolateral to apical side in dog MDCK-MDR1 cells at 5 uM incubated for 90 mins by LC-MS/MS analysis; assay type: ADME, cell-based, Canis lupus familiaris
CYP2E1 = CYP2E1 (Homo sapiens, UniProt P05181); assay: Inhibition of CYP2E1 in human liver microsomes using chlorzoxazone as substrate at 10 uM preincubated for 10 mins followed by NADPH addition and measured after 40 mins by LC-MS/MS analysis relative to control; conditions: probe chlorzoxazone
CYP3A4 = CYP3A4 (Homo sapiens, UniProt P08684); assay: Inhibition of CYP3A4 in human liver microsomes using midazolam as substrate at 10 uM preincubated for 10 mins followed by NADPH addition and measured after 40 mins by LC-MS/MS analysis relative to control; assay type: ADME, Microsome; conditions: probe midazolam, time 50 min
[4] = AUC (0 to t) in Sprague-Dawley rat at 2 mg/kg,iv measured upto 24 hrs by LC-MS/MS analysis; assay type: ADME, organism-based; conditions: in vivo
[5] = AUC (0 to infinity) in Sprague-Dawley rat at 2 mg/kg,iv measured upto 24 hrs by LC-MS/MS analysis; assay type: ADME, organism-based; conditions: in vivo
[6] = MRT (0 to t) in Sprague-Dawley rat at 2 mg/kg,iv measured upto 24 hrs by LC-MS/MS analysis; assay type: ADME, organism-based; conditions: in vivo
[7] = Cmax in Sprague-Dawley rat at 10 mg/kg,po measured upto 24 hrs by LC-MS/MS analysis; assay type: ADME, organism-based; conditions: in vivo
[8] = Oral bioavailability in Sprague-Dawley rat at 10 mg/kg measured upto 24 hrs by LC-MS/MS analysis; assay type: ADME, organism-based; conditions: in vivo
[9] = Drug concentration in Sprague-Dawley rat plasma at 10 mg/kg,po measured after 1 hr by LC-MS/MS analysis; assay type: ADME, organism-based
[10] = Drug concentration in Sprague-Dawley rat brain at 10 mg/kg,po measured after 2 hrs by LC-MS/MS analysis; assay type: ADME, organism-based; conditions: read-out: Ct
[11] = Drug concentration in Sprague-Dawley rat brain at 10 mg/kg,po measured after 4 hrs by LC-MS/MS analysis; assay type: ADME, organism-based; conditions: read-out: Ct
Cytochrome P450 2C19 = Cytochrome P450 2C19 (Homo sapiens, UniProt P33261); assay: Inhibition of CYP2C19 in human liver microsomes using mephenytoin as substrate preincubated for 10 mins followed by NADPH addition and measured after 40 mins by LC-MS/MS analysis; assay type: ADME, Microsome
[12] = biological target: Dual specificity tyrosine-phosphorylation-regulated kinase 1B (Homo sapiens, UniProt Q9Y463); assay: Inhibition of DYRK1B (unknown origin) preincubated with enzyme for 10 mins followed by substrate and ATP addition measured after 60 mins by ADP-Glo reagent based assay
[13] = biological target: Dual specificity tyrosine-phosphorylation-regulated kinase 2 (Homo sapiens, UniProt Q92630); assay: Inhibition of DYRK2 (unknown origin) preincubated with enzyme for 10 mins followed by substrate and ATP addition measured after 60 mins by ADP-Glo reagent based assay
[14] = biological target: Dual specificity protein kinase CLK4 (Homo sapiens, UniProt Q9HAZ1); assay: Inhibition of CLK4 (unknown origin) preincubated with enzyme for 10 mins followed by substrate and ATP addition measured after 60 mins by ADP-Glo reagent based assay
[15] = biological target: Dual specificity tyrosine-phosphorylation-regulated kinase 4 (Homo sapiens) (UniProt Q9NR20); assay: Inhibition of DYRK4 (unknown origin) at 1 uM preincubated with enzyme for 10 mins followed by substrate and ATP addition measured after 60 mins by ADP-Glo reagent based assay relative to control; conditions: time 70.0 min
SH-SY5Y = assay: Cytotoxicity against human SH-SY5Y cells expressing human Tau P301L mutant at 20 uM incubated for 24 hrs by MTT assay; assay type: functional, cell-based
[16] = Acute toxicity in C57BL/6 mouse assessed as animal death at 500 mg/kg,po observed after 14 days; assay type: organism-based; conditions: in vivo, 336 h, time 14 day
[17] = Acute toxicity in C57BL/6 mouse assessed as change in liver weight at 500 mg/kg,po observed after 14 days; assay type: organism-based; conditions: in vivo, 336 h, time 14 day
[18] = Acute toxicity in C57BL/6 mouse assessed as change in spleen weight at 500 mg/kg,po observed after 14 days; assay type: organism-based; conditions: in vivo, 336 h, time 14 day
[19] = Acute toxicity in C57BL/6 mouse assessed as change in kidney weight at 500 mg/kg,po observed after 14 days; assay type: organism-based; conditions: in vivo, 336 h, time 14 day
[20] = Acute toxicity in C57BL/6 mouse assessed as histopathological change in heart at 500 mg/kg,po observed after 14 days by hematoxylin-eosin staining based analysis; assay type: organism-based; conditions: in vivo, 336 h, time 14 day
[21] = Acute toxicity in C57BL/6 mouse assessed as histopathological change in spleen at 500 mg/kg,po observed after 14 days by hematoxylin-eosin staining based analysis; assay type: organism-based; conditions: in vivo, 336 h, time 14 day
[22] = Acute toxicity in C57BL/6 mouse assessed as histopathological change in lung at 500 mg/kg,po observed after 14 days by hematoxylin-eosin staining based analysis; assay type: organism-based; conditions: in vivo, 336 h, time 14 day
[23] = Acute toxicity in C57BL/6 mouse assessed as histopathological change in kidney at 500 mg/kg,po observed after 14 days by hematoxylin-eosin staining based analysis; assay type: organism-based; conditions: in vivo, 336 h, time 14 day
Mus musculus [24] = assay: Antialzheimer activity in okadaic acid-induced cognitive impairment C57BL/6 mouse assessed as decrease in learning deficit at 10 to 30 mg/kg,po once daily for 2 weeks by Morris water maze test; assay type: functional, organism-based; conditions: dose 10-30 mg/kg
Mus musculus [25] = assay: Antialzheimer activity in okadaic acid-induced cognitive impairment C57BL/6 mouse assessed as decrease in memory deficit at 10 to 30 mg/kg,po once daily for 2 weeks by Morris water maze test; assay type: functional, organism-based; conditions: dose 10-30 mg/kg
Mus musculus [26] = assay: Antialzheimer activity in okadaic acid-induced cognitive impairment C57BL/6 mouse assessed as increase in number of platform crossing at 10 to 30 mg/kg,po measured after 7 days by Morris water maze test; assay type: functional, organism-based; conditions: dose 10-30 mg/kg, time 7.0 day
Mus musculus [27] = assay: Antialzheimer activity in okadaic acid-induced cognitive impairment C57BL/6 mouse assessed as downregulation of Tau phosphorylation at Thr212 residue in temporal cortex at 10 to 30 mg/kg,po once daily for 2 weeks by ELISA; assay type: functional, organism-based; conditions: dose 10-30 mg/kg
Mus musculus [28] = assay: Antialzheimer activity in okadaic acid-induced cognitive impairment C57BL/6 mouse assessed as reduction in nerve damage in hippocampal DG region at 10 to 30 mg/kg,po once daily for 2 weeks by Nissl staining based microscopy; assay type: functional, organism-based; conditions: dose 10-30 mg/kg
[29] = Toxicity in okadaic acid-induced cognitive impairment C57BL/6 mouse assessed as change in serum TBIL level at 10 to 30 mg/kg,po once daily for 2 weeks; assay type: organism-based; conditions: in vivo, 336 h, dose 10-30 mg/kg
[30] = Toxicity in okadaic acid-induced cognitive impairment C57BL/6 mouse assessed as change in serum BUN level at 10 to 30 mg/kg,po once daily for 2 weeks; assay type: organism-based; conditions: in vivo, 336 h, dose 10-30 mg/kg
[31] = Toxicity in okadaic acid-induced cognitive impairment C57BL/6 mouse assessed as change in serum CRE level at 10 to 30 mg/kg,po once daily for 2 weeks; assay type: organism-based; conditions: in vivo, 336 h, dose 10-30 mg/kg

Chain of Dual specificity protein kinase CLK4 (Q9HAZ1 whole entry): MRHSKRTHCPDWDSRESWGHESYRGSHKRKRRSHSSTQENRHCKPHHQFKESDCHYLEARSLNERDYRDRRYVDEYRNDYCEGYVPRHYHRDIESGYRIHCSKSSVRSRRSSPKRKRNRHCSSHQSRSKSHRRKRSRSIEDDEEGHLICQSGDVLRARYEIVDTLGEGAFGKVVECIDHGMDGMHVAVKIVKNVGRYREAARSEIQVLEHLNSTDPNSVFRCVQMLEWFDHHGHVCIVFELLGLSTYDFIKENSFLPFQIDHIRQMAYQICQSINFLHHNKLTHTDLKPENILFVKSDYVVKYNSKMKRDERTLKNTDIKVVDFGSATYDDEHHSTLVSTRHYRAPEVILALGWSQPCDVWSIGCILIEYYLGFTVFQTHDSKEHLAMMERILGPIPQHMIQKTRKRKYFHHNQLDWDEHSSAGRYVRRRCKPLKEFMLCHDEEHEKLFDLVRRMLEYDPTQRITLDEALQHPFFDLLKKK
Chain of Dual specificity tyrosine-phosphorylation-regulated kinase 4 (Homo sapiens) (Q9NR20 whole entry): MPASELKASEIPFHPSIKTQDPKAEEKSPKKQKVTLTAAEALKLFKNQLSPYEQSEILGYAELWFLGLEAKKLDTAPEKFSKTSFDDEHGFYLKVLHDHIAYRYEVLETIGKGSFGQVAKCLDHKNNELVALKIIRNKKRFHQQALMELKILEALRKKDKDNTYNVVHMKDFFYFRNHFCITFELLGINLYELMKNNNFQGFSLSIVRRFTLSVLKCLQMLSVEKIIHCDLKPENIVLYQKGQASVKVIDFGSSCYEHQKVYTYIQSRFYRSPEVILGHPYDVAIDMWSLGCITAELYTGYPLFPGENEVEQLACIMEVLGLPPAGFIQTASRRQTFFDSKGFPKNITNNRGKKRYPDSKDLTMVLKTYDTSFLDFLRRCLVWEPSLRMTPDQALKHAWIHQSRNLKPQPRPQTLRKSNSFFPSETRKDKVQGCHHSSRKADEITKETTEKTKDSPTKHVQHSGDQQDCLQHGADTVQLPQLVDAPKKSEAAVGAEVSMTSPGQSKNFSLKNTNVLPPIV
Chain of Dual specificity tyrosine-phosphorylation-regulated kinase 1B (Q9Y463 whole entry): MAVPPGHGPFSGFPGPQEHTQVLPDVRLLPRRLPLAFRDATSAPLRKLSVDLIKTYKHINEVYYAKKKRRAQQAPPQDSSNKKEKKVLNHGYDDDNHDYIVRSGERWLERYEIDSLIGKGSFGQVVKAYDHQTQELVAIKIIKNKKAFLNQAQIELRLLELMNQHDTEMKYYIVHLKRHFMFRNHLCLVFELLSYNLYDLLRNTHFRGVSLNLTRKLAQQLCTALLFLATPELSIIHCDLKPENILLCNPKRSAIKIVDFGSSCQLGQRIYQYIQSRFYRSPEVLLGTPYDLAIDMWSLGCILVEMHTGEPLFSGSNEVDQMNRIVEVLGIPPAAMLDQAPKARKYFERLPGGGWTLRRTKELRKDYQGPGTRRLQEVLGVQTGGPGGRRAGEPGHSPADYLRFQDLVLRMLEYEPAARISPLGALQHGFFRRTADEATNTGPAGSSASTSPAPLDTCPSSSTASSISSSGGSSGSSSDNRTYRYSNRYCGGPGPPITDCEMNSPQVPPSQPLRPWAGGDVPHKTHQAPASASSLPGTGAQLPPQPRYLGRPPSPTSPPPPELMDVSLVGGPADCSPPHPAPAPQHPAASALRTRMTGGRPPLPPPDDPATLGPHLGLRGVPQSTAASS
Chain of CYP3A4 (P08684 whole entry): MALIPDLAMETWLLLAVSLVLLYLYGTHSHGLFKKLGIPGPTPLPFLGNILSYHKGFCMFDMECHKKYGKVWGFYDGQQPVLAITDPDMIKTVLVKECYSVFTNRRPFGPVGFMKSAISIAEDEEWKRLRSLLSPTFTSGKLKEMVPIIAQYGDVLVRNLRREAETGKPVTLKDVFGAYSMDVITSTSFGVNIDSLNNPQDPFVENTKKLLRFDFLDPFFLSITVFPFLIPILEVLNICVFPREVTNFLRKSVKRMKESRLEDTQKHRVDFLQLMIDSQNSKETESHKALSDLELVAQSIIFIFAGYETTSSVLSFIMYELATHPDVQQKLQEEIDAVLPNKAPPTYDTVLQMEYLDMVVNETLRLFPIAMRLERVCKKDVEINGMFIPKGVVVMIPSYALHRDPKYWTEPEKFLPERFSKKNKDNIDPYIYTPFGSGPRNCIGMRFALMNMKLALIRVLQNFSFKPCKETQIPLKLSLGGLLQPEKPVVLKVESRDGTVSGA
Chain of Cytochrome P450 2C19 (P33261 whole entry): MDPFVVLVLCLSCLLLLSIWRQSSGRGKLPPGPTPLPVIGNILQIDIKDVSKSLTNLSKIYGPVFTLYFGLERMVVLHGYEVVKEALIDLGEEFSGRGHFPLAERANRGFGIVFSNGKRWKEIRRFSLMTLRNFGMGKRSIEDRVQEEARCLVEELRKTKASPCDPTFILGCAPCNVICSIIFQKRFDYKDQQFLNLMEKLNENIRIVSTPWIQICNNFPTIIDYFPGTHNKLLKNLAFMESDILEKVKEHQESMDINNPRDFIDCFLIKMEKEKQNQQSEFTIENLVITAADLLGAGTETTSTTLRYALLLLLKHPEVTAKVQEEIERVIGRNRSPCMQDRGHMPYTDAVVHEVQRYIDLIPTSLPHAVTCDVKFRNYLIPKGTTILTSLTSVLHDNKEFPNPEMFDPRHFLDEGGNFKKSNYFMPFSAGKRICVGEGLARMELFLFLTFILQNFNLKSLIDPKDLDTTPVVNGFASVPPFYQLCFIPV
Chain of Dual specificity tyrosine-phosphorylation-regulated kinase 2 (Q92630 whole entry): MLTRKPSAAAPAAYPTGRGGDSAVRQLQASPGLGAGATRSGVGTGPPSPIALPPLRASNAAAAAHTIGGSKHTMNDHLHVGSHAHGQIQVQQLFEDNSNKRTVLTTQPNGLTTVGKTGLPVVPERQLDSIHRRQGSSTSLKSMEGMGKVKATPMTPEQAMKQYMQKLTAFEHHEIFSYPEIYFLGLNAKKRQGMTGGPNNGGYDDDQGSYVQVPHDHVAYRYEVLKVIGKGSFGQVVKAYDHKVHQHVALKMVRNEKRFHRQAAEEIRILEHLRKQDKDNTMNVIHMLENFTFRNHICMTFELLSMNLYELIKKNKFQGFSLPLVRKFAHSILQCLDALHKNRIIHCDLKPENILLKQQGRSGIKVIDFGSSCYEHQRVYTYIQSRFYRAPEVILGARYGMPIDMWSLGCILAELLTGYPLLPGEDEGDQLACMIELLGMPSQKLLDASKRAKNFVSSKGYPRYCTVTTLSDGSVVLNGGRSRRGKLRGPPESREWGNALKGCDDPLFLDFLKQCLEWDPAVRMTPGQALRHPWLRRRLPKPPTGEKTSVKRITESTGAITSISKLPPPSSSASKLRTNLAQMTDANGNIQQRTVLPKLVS
Chain of CYP2E1 (P05181 whole entry): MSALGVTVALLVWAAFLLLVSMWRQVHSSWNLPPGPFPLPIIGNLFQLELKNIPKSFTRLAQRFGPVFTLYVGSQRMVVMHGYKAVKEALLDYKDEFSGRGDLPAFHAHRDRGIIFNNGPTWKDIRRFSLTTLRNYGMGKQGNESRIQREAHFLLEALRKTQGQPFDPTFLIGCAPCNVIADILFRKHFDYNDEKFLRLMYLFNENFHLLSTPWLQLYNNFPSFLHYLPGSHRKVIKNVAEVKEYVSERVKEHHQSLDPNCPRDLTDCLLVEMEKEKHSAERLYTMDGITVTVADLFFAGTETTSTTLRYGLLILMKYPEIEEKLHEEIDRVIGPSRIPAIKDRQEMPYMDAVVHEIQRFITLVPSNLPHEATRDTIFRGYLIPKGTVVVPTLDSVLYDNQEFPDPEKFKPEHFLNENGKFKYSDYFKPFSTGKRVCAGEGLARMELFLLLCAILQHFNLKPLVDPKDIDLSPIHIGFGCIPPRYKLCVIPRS

In the case of `Cc1ccc2c(-c3ccc4ncnc(N[C@H](CO)c5ccccc5)c4c3)c[nH]c2n1`, the fraction unbound at 5 h, 1 µM [1] is reported as 0.0033, the Papp at 16 h, 10 µM [2] is reported as 13.4 ×10⁻⁶ cm/s and the Papp B→A at […], 5 µM [3] is reported as 30.6 ×10⁻⁶ cm/s. For the same compound, the inhibition at 40 min, 10 µM (CYP2E1) was 0.07%, the inhibition at 40 min, 10 µM (CYP3A4) was 33.1% and the AUC(0-t) at 24 h [4] was 1500 ng·h/mL. The AUC(0-inf) [5] was 1590 ng·h/mL, the MRT last at 24 h [6] was 3.81 h and the Cmax [7] was 230 ng/mL. It also gave a bioavailability [8] of 39.7%, a concentration at 1 h [9] of 353 ng/mL and a concentration at 2 h [10] of 16.8 ng/g. For the same compound, the concentration at 4 h [11] was 39.1 ng/g, the IC50 (Cytochrome P450 2C19) was 1030 nM and the IC50 [12] was 1.02 nM. For the same compound, the IC50 [13] was 14.2 nM, the IC50 [14] was 38.9 nM and the inhibition [15] was 102%. For the same compound, the Activity (SH-SY5Y) was “Active”, the Activity [16] was “Non-Toxic” and the Activity [17] was “Non-Toxic”. The Activity [18] was “Non-Toxic”, the Activity [19] was “Non-Toxic” and the Activity [20] was “Non-Toxic”. The Activity [21] was “Non-Toxic”, the Activity [22] was “Non-Toxic” and the Activity [23] was “Non-Toxic”. For the same compound, the Activity (Mus musculus [24]) was “Active”, the Activity (Mus musculus [25]) was “Active” and the Activity (Mus musculus [26]) was “Active”. For the same compound, the Activity (Mus musculus [27]) was “Active”, the Activity (Mus musculus [28]) was “Active” and the Activity [29] was “Non-Toxic”. The Activity [30] was “Non-Toxic” and the Activity [31] was “Non-Toxic”.
